Patent US20220016080A1, “COMPOUNDS THAT SELECTIVELY AND EFFECTIVELY INHIBIT HAKAI-MEDIATED UBIQUITINATION, AS ANTI-CANCER DRUGS” (FUNDACIÓN PROFESOR NOVOA SANTOS, priority 2018, published 2022)

Key:
Format in all cases: cell-based
[1] = target: T1, E3 ubiquitin-ligase Hakai (Mus musculus, UniProt Q9JIY2); assay: Hakai-dependent ubiquitination assay in 293T cells transfected with Flag-Hakai, v-Src and HA-ubiquitin; conditions: 293T cells transfected with Src, treated 36 h
T1 construct: expressed in transfected cells; host or cells: HEK293T (293) cells, co-transfected with v-Src and HA-ubiquitin, and in A3 also with myc-E-cadherin
T1 sequence (Q9JIY2 1-491): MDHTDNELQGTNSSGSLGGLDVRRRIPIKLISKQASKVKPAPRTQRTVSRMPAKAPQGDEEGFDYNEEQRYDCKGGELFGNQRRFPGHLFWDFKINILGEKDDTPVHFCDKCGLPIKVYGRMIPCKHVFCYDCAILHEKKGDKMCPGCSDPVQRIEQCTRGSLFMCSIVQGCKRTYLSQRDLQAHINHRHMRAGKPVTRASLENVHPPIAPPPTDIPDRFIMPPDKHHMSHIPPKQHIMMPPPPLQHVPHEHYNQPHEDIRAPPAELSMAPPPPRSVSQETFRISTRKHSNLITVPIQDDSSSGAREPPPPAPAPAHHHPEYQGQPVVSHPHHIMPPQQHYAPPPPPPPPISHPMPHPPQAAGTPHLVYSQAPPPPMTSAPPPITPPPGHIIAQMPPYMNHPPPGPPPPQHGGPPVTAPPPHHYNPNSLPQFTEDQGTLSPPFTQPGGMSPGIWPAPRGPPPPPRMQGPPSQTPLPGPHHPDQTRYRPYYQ
Description: For ubiquitination assays, 750.000 HEK293T cells were seeded in 6-well cell culture plates and after 24 h were transfected with 0.25 μg Src, 0.75 μg Flag-Hakai, and 0.5 μg HA-ubiquitin with Lipofectamin 2000 (Invitrogen, UK). Six hours after transfection cells were treated with indicated concentrations of Hakin-1, Hakin-5 or the rest of the analogues tested for 36 h. Whole cell extracts were obtained in lysis buffer (20 mM Tris-HCl pH 7.5, 150 mM NaCl and 1% Triton X-100) containing 10 μg/ml leupeptin, 10 μg/ml aprotinin and 1 mM phenylmethanesulphonyl fluoride (PMSF), supplemented with 10 mM N-ethylmaleimide. Cells were harvested and subjected to western blotting using anti-HA antibody to detect ubiquitination.

[2] = target: T1, E3 ubiquitin-ligase Hakai; assay: Hakai-dependent ubiquitination of the E-cadherin complex (immunoprecipitation, 293T cells); conditions: 293T cells transfected with Flag-Hakai, myc-E-cadherin, v-Src, HA-ubiquitin; IP with anti-E-cadherin
Description: For immunoprecipitation experiments, 293 cells were transfected with 3 μg Src, 4 μg Flag-Hakai, and 2 μg HA-ubiquitin and 3 μg E-cadherin with Lipofectamin 2000 (Invitrogen, UK). 24 h after transfection, cells were lysed for 20 min in 1 ml of 1% Triton X-100 lysis buffer (20 mM Tris-HCl pH 7.5, 150 mM NaCl and 1% Triton X-100) containing 10 μg/ml leupeptin, 10 μg/ml aprotinin and 1 mM phenylmethanesulphonyl fluoride (PMSF), supplemented with 10 mM N-ethylmaleimide and 2.5 mM sodium orthovanadate. After centrifugation at 18.000 g for 10 min, the supernatants were immunoprecipitated for 2 h with 2 μg of anti-E-cadherin antibody bound to 60 μl of protein G PLUS-Agarose beads, followed by SDS-polyacrylamide gel electrophoresis (PAGE) and western blotting with the indicated antibodies as previously reported.

[3] = tested on: normal epithelial MDCK cell line; assay: MTT cell viability assay, MDCK; conditions: normal epithelial MDCK compared to Hakai-MDCK; 72 h
Description: For cytotoxicity assays, 1×10^4 cells were seeded per well into a 96-well plate. After 24 h cells were treated with the indicated inhibitors for 72 h and a MTT colorimetric cell viability assay was performed following manufacturer's instructions (Sigma Aldrich, St Louis, Mo.). Absorbance was measured at 570 and 630 nm using a Multiskan Plus Reader (Nanoquant Infinite M200 Tecan Trading AG, Switzerland). Dose-response curves were designed with Graph Pad Prism Software and the half-maximal inhibitory concentration (IC50) values were calculated. Represented data are the mean±SEM of at least three independent experiments with six replicates per condition.

HT-29 cells = assay: Western blotting of EMT markers, HT-29; conditions: 48 h
Description: For western blot analysis, cells were treated with the indicated inhibitors for 48 h and the whole cell extracts were obtained as described previously. Twenty micrograms of lysates were resolved on a 10% polyacrilamide SDS-PAGE followed by western blot analysis performed as previously described. For immunofluorescence assays cells were grown for 24 h on glass coverslips and treated with the indicated inhibitors for 48 h. Cells were fixed with 4% PFA for 15 min, permeabilized with 0.5% […] and incubated with E-cadherin antibody for 2 h. Coverslips were incubated with fluorescein-tagged secondary antibody (Dakopatts, Sweden) for […]. Finally coverslips were mounted with ProLong Gold antifade reagent (LifeTech, UK) and images were taken in epifluorescence microscope (Olympus) using 40× objective.

[4] = tested on: MDCK non-transformed cells; assay: Soft agar-colony formation assay, MDCK; conditions: 21 days
Description: Soft agar-colony formation assay was performed on 12-well plates in triplicates at a density of 5×10^3 MDCK and MDCK-Hakai cells/well, or 12×10^3 HT29 cells/well. Cells were seeded in medium with 0.5% low-melting agarose over a layer with 0.75% low-melting agarose (Lonza Rockland, Me., USA). Cells were treated with the indicated inhibitors and DMSO was used as vehicle. Treatment was refreshed every 3 days and, after 21 days for MDCK and MDCK-Hakai cells or 28 days for HT29 cells, number of colonies were quantified. Quantification of five randomly-selected fields of each condition was photographed with a Nikon Eclipse-TI microscope (objective 4×). Experiments were conducted with three triplicates and were repeated three times. Data are represented as mean±SD.

LoVo cells = assay: Invasion assay, LoVo; conditions: treated 48 h before seeding
Description: (§1) For invasion assays, cells were treated with Hakin-1 or DMSO as vehicle for 48 h using 1% FBS during the last 24 hours. 3×10^5 MDCK, MDCK-Hakai or LoVo cells were seeded in a cell invasion chamber (Cell invasion assaykit, Chemicon International) containing medium with 2% FBS. After 72 hours for MDCK and MDCK-Hakai Invasive and 16 h for LoVo cells, invasive cells invaded that reach the lower chamber containing 30% FBS were fixed and stained with crystal violet (Sigma Aldrich, St Louis, Mo.) following the manufacturer's specifications. For migration assays, HT29 cells were cultured with Hakin-1 or DMSO as vehicle for 48 h, using medium without serum the last 24 h. In the cell migration chamber were seeded 3×10^5 HT29 cells (Cell migration kit, Millipore, Bedford, Mass.) containing medium without serum. After 16 h, migrated cells in the lower chamber containing serum with 30% FBS were stained with crystal violet and counted following the manufacturer's specifications. For both invasion and migration assays cells were counted in five fields photographed with an Olympus microscope using a 20× objective, experiments were performed in triplicates for each condition and the assays were repeated at least three times. Results are expressed as mean±SD.

Hakai-MDCK cells = assay: Invasion assay, Hakai-MDCK; conditions: treated 48 h before seeding
Description: as §1

## O=C(O)c1ccc(-n2nnnc2SCC(=O)c2ccc([N+](=O)[O-])cc2)cc1 [Hakin-1, 4-(5-{[2-(4-nitrophenyl)-2-oxoethyl]thiol}-1H-tetrazol-1-yl)benzoic acid]
[1]
  Hakai protein levels: no effect was seen
[1]; DMSO as control
  ubiquitination mediated by Hakai (western blotting, anti-HA): strongly reduces the ubiquitination mediated by Hakai in a doses dependent-manner
[2]
  Hakai-dependent ubiquitination of E-cadherin complex: reduction of Hakai-dependent ubiquitination of E-cadherin complex
[3]
  sensitivity to treatment (cell viability, MTT): more resistant
HT-29 cells
  Cortactin expression levels (western blotting): increase expression levels
  E-cadherin levels (western blotting): increase E-cadherin levels
  mesenchymal Vimentin marker (western blotting): reduced
[4]
  colony formation (soft agar): no colony formation was detected
LoVo cells
  cell invasion: strongly reduced cell invasion
Hakai-MDCK cells
  cell invasion: decreased cell invasion
